According to PMC11133381, “Necroptosis induced by ruthenium (II) complexes as mitochondrial disruptors” (Cell Death Discovery, 2024):

How the values were obtained:
[1] = system: HCT116 cells; experiment: Antiproliferative MTS assay, HCT116 cells, 72 h; assay type: cell-based, human; details: 72 h compound incubation
Procedure: (§1) For evaluation of cell death and viability, cells were plated in 96-well plates at 5 × 10^3 cells/well for next-day treatments. MTS metabolism was evaluated as an indicator of cell viability using CellTiter 96® AQueous non-radioactive cell proliferation assay (Promega, Madison, WI, USA), according to the manufacturer’s instructions. Changes in absorbance were measured at 490 nm using a GloMax®-MultiDetection System (Promega). General cell death was evaluated using the ToxiLight^TM BioAssay Kit (Lonza Walkersville Inc., Walkersville, MD, USA), by determining the quantities of adenylate kinase (AK) released from cells with permeabilized plasma membranes and present in the extracellular medium. The bioluminescent signals were recorded using also the GloMax®-MultiDetection System.
(§2) The primary drug screen was performed using the HCT116 and HT29 cell lines. Cells were seeded in 96-well plates at 5 × 10^3 cells/well and 24 h after, exposed to Ru-TRZ compounds and derivatives at a range of concentrations from 0.012 to 243 μM. Cell proliferation was assessed 72 h later using the MTS assay. As a secondary screen, selected hits were tested using HT29, HepG2, and AML12 wild-type cells seeded in 96-well plates at 5 × 10^3 cells/well. In the following day, cells were exposed to selected compounds at the same range of concentrations for additional 24 h. Cell death was evaluated by the ToxiLight assay. All measurements were performed in duplicate. The half-maximal effective concentration (EC50) and half-maximal inhibitory concentration (IC50) were calculated using the GraphPad Prism Software version 8.0.2 (GraphPad Software, Inc., San Diego, CA, USA) with the log (inhibitor) versus response (variable slope) function.

[2] = system: HT29 cells; experiment: Antiproliferative MTS assay, HT29 cells, 72 h; assay type: cell-based, human; details: 72 h compound incubation
Procedure: as §1, §2

[3] = system: caspase-3/7 activity in HT29 cells; experiment: Caspase-Glo 3/7 assay; assay type: cell-based, human; details: 10 µM, 24 h, p < 0.001
Procedure: To determine caspase-3/7 activity, HT29 cells were seeded in 96-well plates at 5 ×10^3 cells/well. Twenty-four hours later, cells were incubated with 10 µM Ru-TRZ, or vehicle control, for additional 24 h. Caspase-3 and -7 activation status was measured using the Caspase-Glo® 3/7 Assay (Promega), according to the manufacturer’s instructions. The luminescent signal was recorded using the GloMax®-MultiDetection System (Promega).

[4] = system: HT29 cells; experiment: Mitochondrial ROS production (MitoSOX Red); assay type: cell-based, human; details: 10 µM, 15 min
Procedure: Mitochondrial superoxide abundance was quantified by fluorometric quantification. Briefly, HT29 or AML12 cells were plated on a 96-well plate at 5 ×10^3 cells/well and on the next day treated with 10 µM Ru-TRZ, or vehicle control, for additional 15 min. MitoSOX™ Red (Invitrogen, Thermo Fisher Scientific) diluted 1:1000 in HBSS was added (100 μL per well) and incubated at 37 °C in a CO2 incubator for 10 min. Cells were then washed with PBS to remove the excess of dye and fluorescence intensity was measured using a Varioskan™ LUX multimode microplate reader (Thermo Scientific) with excitation and emission wavelengths of 510 and 580 nm, respectively. Fluorescence values were normalized by the cell mass content.

[5] = system: AML12 cells; experiment: Cytotoxicity by AK release (ToxiLight), AML12 hepatocytes, 24 h; assay type: cell-based, mouse; details: 24 h compound incubation
Procedure: as §1
(§3) The primary drug screen was performed using the HCT116 and HT29 cell lines. […] Cell proliferation was assessed 72 h later using the MTS assay. […] Cell death was evaluated by the ToxiLight assay. […] The half-maximal effective concentration (EC50) and half-maximal inhibitory concentration (IC50) were calculated using the GraphPad Prism Software version 8.0.2 (GraphPad Software, Inc., San Diego, CA, USA) with the log (inhibitor) versus response (variable slope) function.

[6] = system: HepG2 cells; experiment: Cytotoxicity by AK release (ToxiLight), HepG2 cells, 24 h; assay type: cell-based, human; details: 24 h compound incubation
Procedure: as §1, §3

[7] = system: HT29 cells; experiment: Mitochondrial transmembrane potential (JC-1); assay type: cell-based, human; details: 2 h
Procedure: JC-1 (Sigma-Aldrich) is a cationic dye that represents a reliable fluorescent probe for the assessment of mitochondrial transmembrane potential (ΔΨm). […] HT29 or AML12 cells were plated on a 96-well plate at 5 × 10^3 cells/well and on the next day treated with Ru-TRZ compounds (1 and 5 µM) for 2 h. Carbonyl cyanide m-chlorophenyl hydrazone (CCCP), a mitochondrial depolarizing agent, was used as positive control (200 µM; 4 h). Emitted fluorescence was measured at 530 nm and 590 nm using the GloMax®-MultiDetection System (Promega) and the ratio 590/530 emission intensity was calculated.

[8] = system: HT29 cells; experiment: Cytotoxicity by AK release (ToxiLight), HT29 cells, 24 h; assay type: cell-based, human
Procedure: as §1, §3

[9] = system: HT29 cells; experiment: TSZ (TNF-α + Z-VAD + BV6)-induced necroptosis, AK release; assay type: cell-based, human; details: Nec-1 30 μM, GSK872 10 μM, 24 h
Procedure: As positive control for necroptosis induction, HT29 cells were treated with 20 ng/mL recombinant human TNF-α (#300-01A, PeproTech EC Ltd., London, UK), 10 μM Z-Val-Ala-Asp-fluoromethylketon (Z-VAD-FMK or Z-VAD) pan-caspase inhibitor (#ALX-260-020, Enzo Life Sciences, Farmingdale, NY, USA), and 250 nM BV6 Smac mimetic (#B4653, ApexBio, Houston, USA), L929 cells were treated with 10 ng/mL recombinant murine TNF-α (#315-01 A, PeproTech), and HepG2 cells were treated with 10 μM doxorubicin (DOXO) (#D1515, Sigma-Aldrich). […]
as §1

[10] = system: HT29 cells; experiment: Drug combination study (IC50, combination index, CompuSyn); assay type: cell-based, human; details: combinations at 1:1 ratio
Procedure: In drug combination studies, cells were incubated with TRZ2 combined with 5-fluorouracil (5-FU), oxaliplatin (OXA), and irinotecan (IRI) chemotherapeutics (kindly provided by Hospital Santa Maria, Lisbon, Portugal) at a ratio of 1:1. The effect of combined treatments was evaluated using the CompuSyn software 1.0 (ComboSyn, Inc. and PD Science, LLC). Briefly, the combination index (CI) is a tool to analyze the interaction between drugs allowing to distinguish between synergistic, additive, and antagonistic effects. CI values are calculated considering the concentration of drugs in combination to produce a specific effect (Fraction affected—Fa) and the concentration of drugs to produce that same effect individually. The final CI value is calculated by the average of CI values at Fa 50, 75, 90, and 95%. CI value < 1 indicates synergism while a CI value > 1 indicates antagonism. Fa-CI plot between the levels of different fractions affected against the CI values was also created using CompuSyn software to interpret the type of interactions between TRZ2 and chemotherapeutic drugs. The data points below the additivity line (CI = 1) indicate synergism.

[11] = Homo sapiens, HT-29, 24 h incubation

**Q.** With `CN(C)N=Nc1ccc(C#N)cc1.O=S(=O)([O-])C(F)(F)F.c1cc[cH-]c1.c1ccc([P]2(c3ccccc3)CC[P](c3ccccc3)(c3ccccc3)[Ru+2]2)cc1` [TRZ5] as the molecule, how does the IC50 [1] read?
**A.** The IC50 was 0.22 µM.

**Q.** And the IC50 [2]?
**A.** Its IC50 is 0.31 µM.

**Q.** How did the “Increase in caspase-3/7 activity” value [3] turn out when `CCCC(=O)Nc1ccc(C#N)cc1.O=S(=O)([O-])C(F)(F)F.c1cc[cH-]c1.c1ccc([P]2(c3ccccc3)CC[P](c3ccccc3)(c3ccccc3)[Ru+2]2)cc1` [TRZ7] was run?
**A.** The value was “up to 4 fold”.

**Q.** And the “Increase of mitochondrial ROS” value [4]?
**A.** Its value is roughly 3 fold.

**Q.** What about the EC50 [5] of the same molecule?
**A.** The EC50 was 40.2 µM.

**Q.** What about the IC50 [1] of the same molecule?
**A.** Its IC50 is 0.55 µM.

**Q.** What about the IC50 [2] of the same molecule?
**A.** Its IC50 is 0.36 µM.

**Q.** And the EC50 [6]?
**A.** The EC50 was 16.8 µM.

**Q.** And the “Loss of ΔΨm” value ([7]; 1 µM, JC-1, p < 0.05)?
**A.** The value was “significant loss of ΔΨm”.

**Q.** And the “Loss of ΔΨm” value ([7]; 5 µM, JC-1, CCCP 200 µM 4 h as positive control)?
**A.** Its value is “loss of ΔΨm similar to the one induced by CCCP”.

**Q.** And the “Cell death (AK release)” value ([8]; 10 µM, 24 h, partially reverted by Z-VAD, Nec-1 and GSK872)?
**A.** The value was “high levels of cell death”.

**Q.** What about the EC50 ([8]; AK release, 24 h compound incubation) of the same molecule?
**A.** Its EC50 is 15.2 µM.

**Q.** `N#Cc1ccc(NC(=O)CCOCCOCCOCCN)cc1.O=S(=O)([O-])C(F)(F)F.[Ru+2].c1cc[cH-]c1.c1ccc(P(CCP(c2ccccc2)c2ccccc2)c2ccccc2)cc1` [TRZ6] was tested. Which IC50 [1] did it give?
**A.** Its IC50 is 2.42 µM.

**Q.** And the IC50 [2]?
**A.** Its IC50 is 3.54 µM.

**Q.** With `CN1C(=O)C(Cc2c[nH]c3ccccc23)NC1=S` (centres unmarked) [Nec-1, Necrostatin-1] as the molecule, how does the “Effect on TSZ-induced cell damage (AK release)” value [9] read?
**A.** The value was “rescued”.

**Q.** `O=c1[nH]cc(F)c(=O)[nH]1` [5-FU, 5-fluorouracil] was tested. Which IC50 [10, 11] did it give?
**A.** Its IC50 is 29.9 µM.

**Q.** Which IC50 [1] does the source give for `N#Cc1ccc(NC(=O)COCCOCCOCCN=[N+]=[N-])cc1.O=S(=O)([O-])C(F)(F)F.[Ru+2].c1cc[cH-]c1.c1ccc(P(CCP(c2ccccc2)c2ccccc2)c2ccccc2)cc1` [TRZ8] here?
**A.** The IC50 was 0.46 µM.

**Q.** What about the IC50 [2] of the same molecule?
**A.** Its IC50 is 0.27 µM.

**Q.** Which “Effect on TSZ-induced cell damage (AK release)” value [9] does the source give for `CC(C)S(=O)(=O)c1ccc2nccc(Nc3ccc4scnc4c3)c2c1` [GSK872] here?
**A.** Its value is “significantly decreased TSZ-induced AK release”.

**Q.** How did the IC50 ([10]; 24 h incubation) turn out when `O=C1[O][Pt]2([NH][C@@H]3CCCC[C@H]3[NH]2)[O]C1=O` [OX, oxaliplatin] was run?
**A.** Its IC50 is 10.8 µM.

**Q.** What does the source list for `CN(N=Nc1ccc(C#N)cc1)C(=O)c1ccccc1.O=S(=O)([O-])C(F)(F)F.[Ru+2].c1cc[cH-]c1.c1ccc(P(CCP(c2ccccc2)c2ccccc2)c2ccccc2)cc1` [TRZ4]?
**A.** IC50 [1]: 0.55 µM; IC50 [2]: 0.23 µM

**Q.** `CCc1c2c(nc3ccc(OC(=O)N4CCC(N5CCCCC5)CC4)cc13)-c1cc3c(c(=O)n1C2)COC(=O)[C@]3(O)CC` [IRI, irinotecan] was tested. Which IC50 [10, 11] did it give?
**A.** The IC50 was 44 µM.
